18 compounds from patent US10328053B2 (Gilead Sciences, Inc., priority 2016, dated 2019) can be followed below.

A short description of the data set: Hepatic Stability Assay (in vitro half-life method). In kind it is in vitro ADME. Further details: dose or concentration left out as unconfirmed. As to conditions: pooled cryopreserved hepatocytes, 37° C., 1×10^6 cells/mL, 0-6 hours, LC-MS/MS, 39.5 hours is the maximum detectable half life, read-out: t½ (converted). How it is done:
Hepatic Stability Assay The metabolic stability of certain compounds disclosed herein was assessed in vitro in pooled cryopreserved hepatocytes using the in vitro half-life method. Incubations were at 37° C. and final concentrations in the incubations were 1×10^6 cells/mL and […] test concentration of the compound. Aliquots were sequentially removed after 0, 1, 3 and 6 hours and analyzed by LC-MS/MS. In vitro half-life was determined by measuring the rate of disappearance of the compound and then scaled to predicted hepatic clearance using the well-stirred model. […] As such, compounds having a value of 39.5 may have a half live that exceeds 39.5 hours.
`Cc1c(C(=O)C(=O)NC2(C(N)=O)CC(F)(F)C2)c2n(c1C(=O)Nc1cc(F)c(F)c(F)c1)CCC2` [Example 140, 7-(2-((1-carbamoyl-3,3-difluorocyclobutyl)amino)-2-oxoacetyl)-6-methyl-N-(3,4,5-trifluorophenyl)-2,3-dihydro-1H-pyrrolizine-5-carboxamide]: the half-life was 13.5 h.
For `Cc1c(C(=O)C(=O)NC2(c3c[nH]nn3)CC2)c2n(c1C(=O)Nc1cc(F)cc(Cl)c1)CCC2` [Example 101, 7-(2-((1-(1H-1,2,3-triazol-4-yl)cyclopropyl)amino)-2-oxoacetyl)-N-(3-chloro-5-fluorophenyl)-6-methyl-2,3-dihydro-1H-pyrrolizine-5-carboxamide], the half-life was 7 h.
The value for `CNC(=O)C1(NC(=O)C(=O)c2c(C)c(C(=O)Nc3ccc(F)c(Cl)c3)n3c2CCC3C)CC(F)(F)C1` (racemic) [Example 18, N-(3-chloro-4-fluorophenyl)-7-(2-((3,3-difluoro-1-(methylcarbamoyl)cyclobutyl)amino)-2-oxoacetyl)-3,6-dimethyl-2,3-dihydro-1H-pyrrolizine-5-carboxamide] was 6 h; that for `Cc1c(C(=O)C(=O)N[C@H](C)C(F)(F)F)c2n(c1C(=O)Nc1ccc(F)c(Cl)c1)C(C)CC2` (mixture of isomers) [Example 20, N-(3-chloro-4-fluorophenyl)-3,6-dimethyl-7-(2-oxo-2-(((R)-1,1,1-trifluoropropan-2-yl)amino)acetyl)-2,3-dihydro-1H-pyrrolizine-5-carboxamide] was 14.3 h; that for `Cc1c(C(=O)C(=O)NC2(c3cn(C)nn3)CC2)c2n(c1C(=O)Nc1ccc(F)c(Cl)c1)CCC2` [Example 98, N-(3-chloro-4-fluorophenyl)-6-methyl-7-(2-((1-(1-methyl-1H-1,2,3-triazol-4-yl)cyclopropyl)amino)-2-oxoacetyl)-2,3-dihydro-1H-pyrrolizine-5-carboxamide] was 14.8 h.
The value for `Cc1c(C(=O)C(=O)N[C@](C)(CO)C(F)(F)F)c2n(c1C(=O)Nc1ccc(F)c(F)c1)CCC2` [Example 133, (R)—N-(3,4-difluorophenyl)-6-methyl-7-(2-oxo-2-((1,1,1-trifluoro-3-hydroxy-2-methylpropan-2-yl)amino)acetyl)-2,3-dihydro-1H-pyrrolizine-5-carboxamide] was 12.5 h; that for `Cc1c(C(=O)C(=O)NC2(CO)CC(F)(F)C2)c2n(c1C(=O)Nc1ccc(F)c(Cl)c1)CCC2` [Example 117, N-(3-chloro-4-fluorophenyl)-7-(2-((3,3-difluoro-1-(hydroxymethyl)cyclobutyl)amino)-2-oxoacetyl)-6-methyl-2,3-dihydro-1H-pyrrolizine-5-carboxamide] was 10.5 h; that for `Cc1c(C(=O)C(=O)NC2(C(=O)N(C)C)CC(F)(F)C2)c2n(c1C(=O)Nc1ccc(F)c(F)c1)CCC2` [Example 125, N-(3,4-difluorophenyl)-7-(2-((1-(dimethylcarbamoyl)-3,3-difluorocyclobutyl)amino)-2-oxoacetyl)-6-methyl-2,3-dihydro-1H-pyrrolizine-5-carboxamide] was 1.9 h.
With `Cc1c(C(=O)C(=O)NC2(C(N)=O)CC(F)(F)C2)c2n(c1C(=O)Nc1ccc(F)c(F)c1)CCC2` [Example 121, 7-(2-((1-carbamoyl-3,3-difluorocyclobutyl)amino)-2-oxoacetyl)-N-(3,4-difluorophenyl)-6-methyl-2,3-dihydro-1H-pyrrolizine-5-carboxamide], the half-life was 19.8 h.
To `Cc1c(C(=O)C(=O)NC2(c3c[nH]nn3)CC2)c2n(c1C(=O)Nc1cc(F)c(F)c(F)c1)CCC2` [Example 26, 7-(2-((1-(1H-1,2,3-triazol-4-yl)cyclopropyl)amino)-2-oxoacetyl)-6-methyl-N-(3,4,5-trifluorophenyl)-2,3-dihydro-1H-pyrrolizine-5-carboxamide] belongs 8.2 h.
For the compound `CNC(=O)C1(NC(=O)C(=O)c2c(C)c(C(=O)Nc3ccc(F)c(F)c3)n3c2C[C@H]2C[C@H]23)CC(F)(F)C1` [Example 96, (1aR,6aR)-5-(2-((3,3-difluoro-1-(methylcarbamoyl)cyclobutyl)amino)-2-oxoacetyl)-N-(3,4-difluorophenyl)-4-methyl-1,1a,6,6a-tetrahydrocyclopropa[b]pyrrolizine-3-carboxamide], the half-life was 22.6 h.
For the compound `CNC(=O)C1(NC(=O)C(=O)c2c(C)c(C(=O)Nc3ccc(F)c(Cl)c3)n3c2C[C@@H]2C[C@@H]23)CC(F)(F)C1` [Example 4, (1aS,6aS)—N-(3-chloro-4-fluorophenyl)-5-(2-((3,3-difluoro-1 (methylcarbamoyl)cyclobutyl)amino)-2-oxoacetyl)-4-methyl-1,1a,6,6a-tetrahydrocyclopropa[b]pyrrolizine-3-carboxamide], the half-life was 7.3 h.
As for `Cc1c(C(=O)C(=O)NC2(C(=O)N(C)C)CC(F)(F)C2)c2n(c1C(=O)Nc1ccc(F)c(Cl)c1)CCC2` [Example 124, N-(3-chloro-4-fluorophenyl)-7-(2-((1-(dimethylcarbamoyl)-3,3-difluorocyclobutyl)amino)-2-oxoacetyl)-6-methyl-2,3-dihydro-1H-pyrrolizine-5-carboxamide], the half-life is 1 h.
To `Cc1c(C(=O)C(=O)NC2(CN3CC4(COC4)C3)CC(F)(F)C2)c2n(c1C(=O)Nc1ccc(F)c(Cl)c1)CCC2` [Example 10, 7-(2-((1-((2-oxa-6-azaspiro[3.3]heptan-6-yl)methyl)-3,3-difluorocyclobutyl)amino)-2-oxoacetyl)-N-(3-chloro-4-fluorophenyl)-6-methyl-2,3-dihydro-1H-pyrrolizine-5-carboxamide] belongs 1 h; to `Cc1c(C(=O)C(=O)NC2(c3cnn[nH]3)CC2)c2n(c1C(=O)Nc1cc(Cl)ccc1F)CCC2` [Example 86, 7-(2-((1-(1H-1,2,3-triazol-5-yl)cyclopropyl)amino)-2-oxoacetyl)-N-(5-chloro-2-fluorophenyl)-6-methyl-2,3-dihydro-1H-pyrrolizine-5-carboxamide], 9.4 h.
The value for `CNC(=O)C1(NC(=O)C(=O)c2c(C)c(C(=O)Nc3cc(F)c(F)c(Cl)c3)n3c2CCC3)CC(F)(F)C1` [Example 129, N-(3-chloro-4,5-difluorophenyl)-7-(2-((3,3-difluoro-1-(methylcarbamoyl)cyclobutyl)amino)-2-oxoacetyl)-6-methyl-2,3-dihydro-1H-pyrrolizine-5-carboxamide] was 20.8 h; that for `CNC(=O)C1(NC(=O)C(=O)c2c(C)c(C(=O)Nc3ccc(F)c(C#N)c3)n3c2C[C@H]2C[C@H]23)CC(F)(F)C1` [Example 30, (1aR,6aR)—N-(3-cyano-4-fluorophenyl)-5-(2-((3,3-difluoro-1-(methylcarbamoyl)cyclobutyl)amino)-2-oxoacetyl)-4-methyl-1,1a,6,6a-tetrahydrocyclopropa[b]pyrrolizine-3-carboxamide] was 27.2 h; that for `Cc1c(C(=O)C(=O)N[C@]2(C)C[S@+]([O-])C2)c2n(c1C(=O)Nc1ccc(F)c(F)c1)CCC2` [Example 152, N-(3,4-difluorophenyl)-6-methyl-7-(2-(((1s,3s)-3-methyl-1-oxidothietan-3-yl)amino)-2-oxoacetyl)-2,3-dihydro-1H-pyrrolizine-5-carboxamide] was 10.5 h.
